Laboratory results reported in PubChem BioAssay (NCI).
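These data come from cells grown in 96-well plates and exposed to compound for 48 hours at five concentrations. GI50 is the concentration that inhibits growth by half. TGI: total growth inhibition.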

Tests used:
Test in all cases: NCI anticancer screen, dose series, 48 h
OVCAR-8 ovarian = tested on: OVCAR-8 ovarian
TK-10 renal = tested on: TK-10 renal
MOLT-4 leukemia = tested on: MOLT-4 leukemia
HOP-92 NSCLC = tested on: HOP-92 NSCLC
OVCAR-5 ovarian = tested on: OVCAR-5 ovarian
DU-145 prostate = tested on: DU-145 prostate
HCT-116 colon = tested on: HCT-116 colon
BT-549 breast = tested on: BT-549 breast
RPMI-8226 leukemia = tested on: RPMI-8226 leukemia
UACC-62 melanoma = tested on: UACC-62 melanoma
NCI-H226 lung = tested on: NCI-H226 lung
COLO 205 colon = tested on: COLO 205 colon
HCT-15 colon = tested on: HCT-15 colon
IGROV1 ovarian = tested on: IGROV1 ovarian
NCI-H23 lung = tested on: NCI-H23 lung
KM12 colon = tested on: KM12 colon
OVCAR-4 ovarian = tested on: OVCAR-4 ovarian
UO-31 renal = tested on: UO-31 renal
SK-MEL-2 melanoma = tested on: SK-MEL-2 melanoma
RXF 393 renal = tested on: RXF 393 renal
SF-539 CNS = tested on: SF-539 CNS
SK-MEL-5 melanoma = tested on: SK-MEL-5 melanoma
HT29 colon = tested on: HT29 colon
SNB-19 CNS = tested on: SNB-19 CNS
EKVX NSCLC = tested on: EKVX NSCLC
MCF7 breast = tested on: MCF7 breast
SNB-75 CNS = tested on: SNB-75 CNS
HOP-62 NSCLC = tested on: HOP-62 NSCLC
SF-268 CNS = tested on: SF-268 CNS
SF-295 CNS = tested on: SF-295 CNS
SK-MEL-28 melanoma = tested on: SK-MEL-28 melanoma
NCI/ADR-RES ovarian = tested on: NCI/ADR-RES ovarian
MDA-MB-231 breast = tested on: MDA-MB-231 breast
T-47D breast = tested on: T-47D breast
NCI-H460 lung = tested on: NCI-H460 lung
HCC-2998 colon = tested on: HCC-2998 colon
K-562 leukemia = tested on: K-562 leukemia
CCRF-CEM leukemia = tested on: CCRF-CEM leukemia
A498 renal = tested on: A498 renal
UACC-257 melanoma = tested on: UACC-257 melanoma
HS 578T breast = tested on: HS 578T breast
ACHN renal = tested on: ACHN renal
PC-3 prostate = tested on: PC-3 prostate
HL-60(TB) leukemia = tested on: HL-60(TB) leukemia
SK-OV-3 ovarian = tested on: SK-OV-3 ovarian
M14 melanoma = tested on: M14 melanoma
CAKI-1 renal = tested on: CAKI-1 renal
MDA-MB-435 = tested on: MDA-MB-435
OVCAR-3 ovarian = tested on: OVCAR-3 ovarian
U251 CNS = tested on: U251 CNS
SN12C renal = tested on: SN12C renal
NCI-H522 lung = tested on: NCI-H522 lung
A549 NSCLC = tested on: A549 NSCLC
SW-620 colon = tested on: SW-620 colon
LOX IMVI melanoma = tested on: LOX IMVI melanoma

Molecule `COc1ccccc1NC(=O)c1ccc(NC2=C(Cl)C(=O)N(Cc3ccccc3)C2=O)cc1` has a GI50 (OVCAR-8 ovarian) of 2.27 µM, a TGI (OVCAR-8 ovarian) of 32.9 µM and a GI50 (TK-10 renal) of 40.3 µM. The TGI (TK-10 renal) was 89.1 µM, the GI50 (MOLT-4 leukemia) was 3.31 µM and the TGI (MOLT-4 leukemia) was greater than 100 µM. The GI50 (HOP-92 NSCLC) was 3.68 µM, the TGI (HOP-92 NSCLC) was 45.4 µM and the GI50 (OVCAR-5 ovarian) was 44.1 µM. The TGI (OVCAR-5 ovarian) was greater than 100 µM, the GI50 (DU-145 prostate) was 2.01 µM and the TGI (DU-145 prostate) was 28 µM. The GI50 (HCT-116 colon) was 12.9 µM, the TGI (HCT-116 colon) was 36.2 µM and the GI50 (BT-549 breast) was 1.46 µM. For the same molecule, the TGI (BT-549 breast) was 11 µM, the GI50 (RPMI-8226 leukemia) was 0.0257 µM and the TGI (RPMI-8226 leukemia) was 0.363 µM. The GI50 (UACC-62 melanoma) was 0.877 µM, the TGI (UACC-62 melanoma) was 24.5 µM and the GI50 (NCI-H226 lung) was 6.84 µM. For the same molecule, the TGI (NCI-H226 lung) was 32.9 µM, the GI50 (COLO 205 colon) was 44.9 µM and the TGI (COLO 205 colon) was greater than 100 µM. It also gave a GI50 (HCT-15 colon) of 14.7 µM, a TGI (HCT-15 colon) of 38.8 µM and a GI50 (IGROV1 ovarian) of 1.36 µM. It also gave a TGI (IGROV1 ovarian) of 4.29 µM, a GI50 (NCI-H23 lung) of 12 µM and a TGI (NCI-H23 lung) of 25.9 µM. It also gave a GI50 (KM12 colon) of 26.6 µM, a TGI (KM12 colon) of 86 µM and a GI50 (OVCAR-4 ovarian) of 29.3 µM. It also gave a TGI (OVCAR-4 ovarian) greater than 100 µM, a GI50 (UO-31 renal) of 1.7 µM and a TGI (UO-31 renal) of 3.2 µM. For the same molecule, the GI50 (SK-MEL-2 melanoma) was 11.2 µM, the TGI (SK-MEL-2 melanoma) was 29.9 µM and the GI50 (RXF 393 renal) was 19.9 µM. For the same molecule, the TGI (RXF 393 renal) was 78.8 µM, the GI50 (SF-539 CNS) was 16.6 µM and the TGI (SF-539 CNS) was 41.2 µM. For the same molecule, the GI50 (SK-MEL-5 melanoma) was 16 µM, the TGI (SK-MEL-5 melanoma) was 45.3 µM and the GI50 (HT29 colon) was 36.8 µM. For the same molecule, the TGI (HT29 colon) was greater than 100 µM, the GI50 (SNB-19 CNS) was 48.9 µM and the TGI (SNB-19 CNS) was greater than 100 µM. It also gave a GI50 (EKVX NSCLC) of 29.1 µM, a TGI (EKVX NSCLC) greater than 100 µM and a GI50 (MCF7 breast) of 7.77 µM. The TGI (MCF7 breast) was 54 µM, the GI50 (SNB-75 CNS) was 37.7 µM and the TGI (SNB-75 CNS) was greater than 100 µM. It also gave a GI50 (HOP-62 NSCLC) of 26.8 µM, a TGI (HOP-62 NSCLC) of 63.5 µM and a GI50 (SF-268 CNS) of 25.4 µM. It also gave a TGI (SF-268 CNS) greater than 100 µM, a GI50 (SF-295 CNS) of 18.2 µM and a TGI (SF-295 CNS) of 63.4 µM. The GI50 (SK-MEL-28 melanoma) was 30.3 µM, the TGI (SK-MEL-28 melanoma) was greater than 100 µM and the GI50 (NCI/ADR-RES ovarian) was 15.2 µM. It also gave a TGI (NCI/ADR-RES ovarian) of 48.1 µM, a GI50 (MDA-MB-231 breast) of 2.82 µM and a TGI (MDA-MB-231 breast) of 16.3 µM. It also gave a GI50 (T-47D breast) of 41.2 µM, a TGI (T-47D breast) greater than 100 µM and a GI50 (NCI-H460 lung) of 33.4 µM. It also gave a TGI (NCI-H460 lung) greater than 100 µM, a GI50 (HCC-2998 colon) of 4.2 µM and a TGI (HCC-2998 colon) of 15.4 µM. For the same molecule, the GI50 (K-562 leukemia) was 4.21 µM, the TGI (K-562 leukemia) was greater than 100 µM and the GI50 (CCRF-CEM leukemia) was 0.0777 µM. It also gave a TGI (CCRF-CEM leukemia) greater than 100 µM, a GI50 (A498 renal) of 27.8 µM and a TGI (A498 renal) of 86.3 µM. For the same molecule, the GI50 (UACC-257 melanoma) was 0.228 µM, the TGI (UACC-257 melanoma) was 21.9 µM and the GI50 (HS 578T breast) was 37.5 µM. It also gave a TGI (HS 578T breast) greater than 100 µM, a GI50 (ACHN renal) of 33.4 µM and a TGI (ACHN renal) greater than 100 µM. It also gave a GI50 (PC-3 prostate) of 0.976 µM, a TGI (PC-3 prostate) of 5.75 µM and a GI50 (HL-60(TB) leukemia) of 3.36 µM. The TGI (HL-60(TB) leukemia) was 43.5 µM, the GI50 (SK-OV-3 ovarian) was greater than 100 µM and the TGI (SK-OV-3 ovarian) was greater than 100 µM. The GI50 (M14 melanoma) was 17.6 µM, the TGI (M14 melanoma) was 40.4 µM and the GI50 (CAKI-1 renal) was 1.48 µM. It also gave a TGI (CAKI-1 renal) of 2.95 µM, a GI50 (MDA-MB-435) of 11.2 µM and a TGI (MDA-MB-435) of 40.5 µM. It also gave a GI50 (OVCAR-3 ovarian) of 10.2 µM, a TGI (OVCAR-3 ovarian) of 22.6 µM and a GI50 (U251 CNS) of 29.3 µM. The TGI (U251 CNS) was greater than 100 µM, the GI50 (SN12C renal) was 10.3 µM and the TGI (SN12C renal) was 39.5 µM. It also gave a GI50 (NCI-H522 lung) of 5.09 µM, a TGI (NCI-H522 lung) of 22.6 µM and a GI50 (A549 NSCLC) of 10.5 µM. For the same molecule, the TGI (A549 NSCLC) was 90.4 µM, the GI50 (SW-620 colon) was 5.29 µM and the TGI (SW-620 colon) was greater than 100 µM. For the same molecule, the GI50 (LOX IMVI melanoma) was 10.3 µM and the TGI (LOX IMVI melanoma) was 35 µM.
